The target in assay [1] is Tubulin. The assay can be described thus: Inhibition of tubulin polymerization (unknown origin) incubated for 15 mins in presence of GTP by fluorescence-based tubulin polymerization assay kit. Type of assay: protein-complex assay, Homo sapiens.
Assay [2] deals with PC-3. The assay can be described thus: Antiproliferative activity against human PC-3 cells incubated for 48 hrs by Sulforhodamine B staining method. Format: functional, cell-based. To be noted: PC-3, 48 h. (In general: Sulforhodamine B stains cellular protein and so reports cell mass.)
Assay [3] deals with DU-145. Kind of assay: Antiproliferative activity against human DU-145 cells incubated for 48 hrs by Sulforhodamine B staining method. Type of assay: functional, cell-based. To be noted: DU-145, 48 h.
Assay [4] addresses T1, Epidermal growth factor receptor (Homo sapiens, UniProt P00533). The assay can be described thus: Inhibition of EGFR (unknown origin).
In assay [5] the target is Vascular endothelial growth factor receptor 2 (Homo sapiens, UniProt P35968). Kind of assay: Inhibition of VEGFR2 (unknown origin).
Assay [6] addresses T2, Histone deacetylase 1 (Homo sapiens, UniProt Q13547). The assay can be described thus: Inhibition of HDAC1 (unknown origin).
For assay [7], the system named is SMMC-7721. Kind of assay: Cytotoxicity against human SMMC-7721 cells. Format: functional, cell-based.
In assay [8] the test system is MCF7. The assay can be described thus: Cytotoxicity against human MCF7 cells. Format: functional, cell-based.
The target of assay [9] is Histone deacetylase. The assay can be described thus: Inhibition of HDAC (unknown origin). Type of assay: protein assay, Homo sapiens.
In assay [10] the target is T3, Protein deacetylase HDAC6 (Homo sapiens, UniProt Q9UBN7).
T3 sequence (Q9UBN7 whole entry): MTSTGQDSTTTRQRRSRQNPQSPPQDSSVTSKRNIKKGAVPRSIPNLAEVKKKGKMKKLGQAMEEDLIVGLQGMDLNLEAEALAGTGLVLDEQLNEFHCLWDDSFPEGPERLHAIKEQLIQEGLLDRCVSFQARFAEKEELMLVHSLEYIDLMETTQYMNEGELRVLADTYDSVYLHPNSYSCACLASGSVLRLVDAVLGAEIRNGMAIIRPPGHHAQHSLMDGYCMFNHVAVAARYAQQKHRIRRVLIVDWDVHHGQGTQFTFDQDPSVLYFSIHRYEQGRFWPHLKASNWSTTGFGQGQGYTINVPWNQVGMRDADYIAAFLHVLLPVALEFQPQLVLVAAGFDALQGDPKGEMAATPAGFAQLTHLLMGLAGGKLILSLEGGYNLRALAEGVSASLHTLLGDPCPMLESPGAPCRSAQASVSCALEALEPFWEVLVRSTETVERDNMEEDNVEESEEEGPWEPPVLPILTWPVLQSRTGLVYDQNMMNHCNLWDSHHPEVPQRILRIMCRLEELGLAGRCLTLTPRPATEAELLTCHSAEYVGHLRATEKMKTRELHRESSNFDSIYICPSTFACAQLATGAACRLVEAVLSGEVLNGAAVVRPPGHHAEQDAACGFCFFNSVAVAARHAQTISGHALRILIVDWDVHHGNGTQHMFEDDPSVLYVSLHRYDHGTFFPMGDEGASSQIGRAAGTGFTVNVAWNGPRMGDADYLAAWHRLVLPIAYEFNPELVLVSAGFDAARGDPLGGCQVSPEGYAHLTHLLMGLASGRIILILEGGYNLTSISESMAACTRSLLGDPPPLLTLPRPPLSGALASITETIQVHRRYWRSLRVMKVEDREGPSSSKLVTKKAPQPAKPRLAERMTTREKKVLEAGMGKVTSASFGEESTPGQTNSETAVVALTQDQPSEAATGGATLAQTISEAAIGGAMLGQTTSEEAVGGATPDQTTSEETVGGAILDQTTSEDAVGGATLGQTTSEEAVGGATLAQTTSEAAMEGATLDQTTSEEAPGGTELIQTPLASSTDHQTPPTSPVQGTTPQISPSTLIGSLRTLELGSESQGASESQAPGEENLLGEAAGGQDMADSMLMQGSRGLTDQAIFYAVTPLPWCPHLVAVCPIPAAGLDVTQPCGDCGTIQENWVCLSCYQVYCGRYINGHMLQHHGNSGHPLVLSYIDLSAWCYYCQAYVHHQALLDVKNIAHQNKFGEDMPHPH
The assay can be described thus: Inhibition of HDAC6 (unknown origin) using fluorogenic substrate incubated for 30 mins by fluorometric drug discovery assay kit method.

In assay [11] the target is Bcr/Abl fusion protein (Homo sapiens, UniProt P00519). Kind of assay: Inhibition of Bcr-Abl (unknown origin). Type of assay: protein assay.
The subject of assay [12] is K562. Kind of assay: Cytotoxicity against human K562 cells.
In assay [13] the test system is DU-145. Kind of assay: Cytotoxicity against human DU-145 cells.
Assay [14] addresses Histone-lysine N-methyltransferase EZH2 (Homo sapiens, UniProt Q15910). Kind of assay: Inhibition of EZH2 (unknown origin).
Assay [15] has as its system Panel NCI-60 (60 carcinoma cell lines). Kind of assay: Cytotoxicity against human Panel NCI-60 (60 carcinoma cell lines). Format: functional, cell-based.
The subject of assay [16] is HCT-116. Kind of assay: In vivo antitumor activity against human HCT-116 cells xenografted in BALB/c nude mouse assessed as tumor growth inhibition at 150 mg/kg, po relative to control. To be noted: read-out: TGI. Format: functional.
The target in assay [17] is T2, Histone deacetylase 1. Kind of assay: Inhibition of HDAC1 in human HeLa cell nuclear extract using Bos-Lys(acetyl)-AMC as substrate preincubated for 5 mins followed by substrate addition incubated for 30 mins. Format: cell-free.
Assay [18] deals with T1, Epidermal growth factor receptor. Kind of assay: Inhibition of EGFR wildtype (unknown origin) incubated for 40 mins in presence of ATP.
The subject of assay [19] is Epidermal growth factor receptor (Homo sapiens), P00533 [UNDEFINED MUTATION]. Kind of assay: Inhibition of EGFR T790M (unknown origin) at 1 uM incubated for 40 mins in presence of ATP relative to control.
The target in assay [20] is Receptor tyrosine-protein kinase erbB-2 (Homo sapiens, UniProt P04626). Kind of assay: Inhibition of HER2 (unknown origin) at 10 ug/ml using synthetic biotinylated peptide as substrate by Wallac Victor II 1420 microplate reader method relative to control. To be noted: dose 10.0 µg/ml.
Assay [21] concerns the target Inhibitor of nuclear factor kappa-B kinase subunit alpha (Homo sapiens) (UniProt O15111). Kind of assay: Inhibition of IKKa (unknown origin) at 1 uM relative to control.
Assay [22] deals with Ribosomal protein S6 kinase alpha-5 (Homo sapiens) (UniProt O75582). Kind of assay: Inhibition of MSK1 (unknown origin) at 1 uM relative to control.

Consider 21 compounds from ChEMBL document CHEMBL5214883, “Comprehensive review for anticancer hybridized multitargeting HDAC inhibitors” (Eur J Med Chem, 2021).

One may read the IC50 as the point on the concentration scale where inhibition reaches its midpoint. By inhibition is commonly meant the change of the read-out against control, counted positive when it falls.

Structures are written as SMILES. Where only a bound is given, the exact number is not on record here.

T2 sequence (Q13547 whole entry): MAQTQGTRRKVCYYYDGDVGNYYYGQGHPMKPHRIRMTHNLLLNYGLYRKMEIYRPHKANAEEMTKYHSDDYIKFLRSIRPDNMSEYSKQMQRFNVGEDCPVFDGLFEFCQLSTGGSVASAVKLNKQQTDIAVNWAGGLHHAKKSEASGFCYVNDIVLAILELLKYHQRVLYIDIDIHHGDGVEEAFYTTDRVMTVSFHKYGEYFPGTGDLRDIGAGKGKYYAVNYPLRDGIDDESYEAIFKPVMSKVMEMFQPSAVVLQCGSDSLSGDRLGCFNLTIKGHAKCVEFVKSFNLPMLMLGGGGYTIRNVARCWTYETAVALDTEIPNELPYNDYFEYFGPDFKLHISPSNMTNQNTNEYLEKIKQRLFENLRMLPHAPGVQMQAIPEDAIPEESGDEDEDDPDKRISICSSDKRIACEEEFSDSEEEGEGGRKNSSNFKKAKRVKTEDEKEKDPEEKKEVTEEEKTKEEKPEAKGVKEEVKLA
T1 sequence (P00533 whole entry): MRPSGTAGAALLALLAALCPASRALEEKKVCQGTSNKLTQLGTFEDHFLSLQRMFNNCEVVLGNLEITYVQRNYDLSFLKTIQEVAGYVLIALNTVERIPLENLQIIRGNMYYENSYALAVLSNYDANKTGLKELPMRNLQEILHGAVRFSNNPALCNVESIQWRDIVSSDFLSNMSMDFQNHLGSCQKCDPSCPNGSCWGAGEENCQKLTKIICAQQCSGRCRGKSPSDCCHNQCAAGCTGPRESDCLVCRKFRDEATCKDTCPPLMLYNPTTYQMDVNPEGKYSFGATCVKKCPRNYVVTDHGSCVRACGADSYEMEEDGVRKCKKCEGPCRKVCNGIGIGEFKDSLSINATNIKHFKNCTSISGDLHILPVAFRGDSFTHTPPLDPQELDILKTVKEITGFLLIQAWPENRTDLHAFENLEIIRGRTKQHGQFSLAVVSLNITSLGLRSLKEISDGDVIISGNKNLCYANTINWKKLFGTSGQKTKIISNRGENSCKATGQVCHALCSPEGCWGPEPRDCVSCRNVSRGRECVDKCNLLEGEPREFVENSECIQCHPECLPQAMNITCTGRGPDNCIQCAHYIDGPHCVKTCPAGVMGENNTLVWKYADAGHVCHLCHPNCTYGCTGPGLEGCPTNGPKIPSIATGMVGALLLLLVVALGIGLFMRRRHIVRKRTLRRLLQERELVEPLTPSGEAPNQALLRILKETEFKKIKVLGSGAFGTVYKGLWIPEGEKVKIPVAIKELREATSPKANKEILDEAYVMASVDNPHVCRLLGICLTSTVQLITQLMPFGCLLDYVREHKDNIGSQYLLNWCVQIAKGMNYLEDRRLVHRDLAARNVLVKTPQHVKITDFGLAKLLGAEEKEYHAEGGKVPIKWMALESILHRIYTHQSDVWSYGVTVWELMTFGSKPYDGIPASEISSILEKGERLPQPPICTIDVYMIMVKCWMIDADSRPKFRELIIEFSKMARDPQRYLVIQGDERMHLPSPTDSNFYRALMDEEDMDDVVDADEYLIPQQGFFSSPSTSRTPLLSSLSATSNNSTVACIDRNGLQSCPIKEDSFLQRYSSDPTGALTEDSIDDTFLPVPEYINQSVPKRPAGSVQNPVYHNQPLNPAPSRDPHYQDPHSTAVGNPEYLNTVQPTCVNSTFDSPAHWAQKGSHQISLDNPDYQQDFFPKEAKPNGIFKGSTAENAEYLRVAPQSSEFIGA
Chain of Inhibitor of nuclear factor kappa-B kinase subunit alpha (Homo sapiens) (O15111 whole entry): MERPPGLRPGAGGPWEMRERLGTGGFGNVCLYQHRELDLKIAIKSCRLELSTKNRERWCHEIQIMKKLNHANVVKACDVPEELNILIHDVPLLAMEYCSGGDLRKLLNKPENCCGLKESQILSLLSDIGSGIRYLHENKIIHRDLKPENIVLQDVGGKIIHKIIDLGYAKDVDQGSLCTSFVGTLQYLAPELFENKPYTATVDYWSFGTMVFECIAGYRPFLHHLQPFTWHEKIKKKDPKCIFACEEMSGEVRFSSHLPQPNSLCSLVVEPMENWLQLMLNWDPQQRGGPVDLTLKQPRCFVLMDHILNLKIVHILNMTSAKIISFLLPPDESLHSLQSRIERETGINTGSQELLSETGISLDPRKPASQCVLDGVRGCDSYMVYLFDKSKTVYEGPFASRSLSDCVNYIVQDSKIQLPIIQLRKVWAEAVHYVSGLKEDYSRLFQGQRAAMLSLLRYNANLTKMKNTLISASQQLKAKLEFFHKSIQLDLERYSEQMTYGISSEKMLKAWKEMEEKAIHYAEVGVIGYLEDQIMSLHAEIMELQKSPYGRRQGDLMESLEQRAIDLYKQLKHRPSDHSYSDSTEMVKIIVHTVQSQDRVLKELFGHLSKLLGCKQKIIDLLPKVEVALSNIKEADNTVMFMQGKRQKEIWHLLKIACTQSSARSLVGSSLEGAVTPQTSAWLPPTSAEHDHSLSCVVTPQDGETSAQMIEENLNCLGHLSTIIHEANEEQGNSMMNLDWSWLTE
Chain of Vascular endothelial growth factor receptor 2 (P35968 whole entry): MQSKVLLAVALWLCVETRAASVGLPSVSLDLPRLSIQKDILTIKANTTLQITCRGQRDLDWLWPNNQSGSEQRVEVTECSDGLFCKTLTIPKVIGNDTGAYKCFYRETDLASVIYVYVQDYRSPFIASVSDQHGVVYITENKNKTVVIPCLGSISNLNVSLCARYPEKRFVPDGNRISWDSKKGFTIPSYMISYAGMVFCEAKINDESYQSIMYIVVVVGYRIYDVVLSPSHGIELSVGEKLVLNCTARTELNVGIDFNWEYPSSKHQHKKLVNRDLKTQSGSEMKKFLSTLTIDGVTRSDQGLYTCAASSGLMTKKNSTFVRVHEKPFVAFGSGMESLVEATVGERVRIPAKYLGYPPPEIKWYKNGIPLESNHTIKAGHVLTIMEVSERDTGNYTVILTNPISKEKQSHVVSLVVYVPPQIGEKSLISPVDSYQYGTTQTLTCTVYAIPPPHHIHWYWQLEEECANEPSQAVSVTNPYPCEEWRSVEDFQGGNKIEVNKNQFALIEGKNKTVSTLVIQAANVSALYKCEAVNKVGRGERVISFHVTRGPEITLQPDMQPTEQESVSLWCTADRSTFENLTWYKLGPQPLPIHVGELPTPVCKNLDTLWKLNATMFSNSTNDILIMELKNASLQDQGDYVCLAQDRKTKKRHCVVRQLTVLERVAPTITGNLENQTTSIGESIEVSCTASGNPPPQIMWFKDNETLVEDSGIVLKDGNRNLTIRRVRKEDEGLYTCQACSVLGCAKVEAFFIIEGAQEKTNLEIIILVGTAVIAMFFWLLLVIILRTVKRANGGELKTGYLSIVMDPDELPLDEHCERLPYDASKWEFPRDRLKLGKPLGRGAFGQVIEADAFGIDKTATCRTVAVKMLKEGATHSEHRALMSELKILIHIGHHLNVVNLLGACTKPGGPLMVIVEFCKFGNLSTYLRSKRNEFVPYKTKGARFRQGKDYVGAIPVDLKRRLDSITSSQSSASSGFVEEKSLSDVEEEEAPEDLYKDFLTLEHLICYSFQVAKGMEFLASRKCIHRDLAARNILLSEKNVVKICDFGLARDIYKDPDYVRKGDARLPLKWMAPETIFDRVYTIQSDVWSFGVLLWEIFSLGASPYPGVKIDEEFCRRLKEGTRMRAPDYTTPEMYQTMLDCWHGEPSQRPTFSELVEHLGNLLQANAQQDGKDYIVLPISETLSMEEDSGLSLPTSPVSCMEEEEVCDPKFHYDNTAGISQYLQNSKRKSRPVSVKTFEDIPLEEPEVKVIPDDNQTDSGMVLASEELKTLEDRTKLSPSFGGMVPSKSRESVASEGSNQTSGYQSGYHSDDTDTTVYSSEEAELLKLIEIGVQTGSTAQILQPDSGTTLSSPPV
Chain of Ribosomal protein S6 kinase alpha-5 (Homo sapiens) (O75582 whole entry, looked up): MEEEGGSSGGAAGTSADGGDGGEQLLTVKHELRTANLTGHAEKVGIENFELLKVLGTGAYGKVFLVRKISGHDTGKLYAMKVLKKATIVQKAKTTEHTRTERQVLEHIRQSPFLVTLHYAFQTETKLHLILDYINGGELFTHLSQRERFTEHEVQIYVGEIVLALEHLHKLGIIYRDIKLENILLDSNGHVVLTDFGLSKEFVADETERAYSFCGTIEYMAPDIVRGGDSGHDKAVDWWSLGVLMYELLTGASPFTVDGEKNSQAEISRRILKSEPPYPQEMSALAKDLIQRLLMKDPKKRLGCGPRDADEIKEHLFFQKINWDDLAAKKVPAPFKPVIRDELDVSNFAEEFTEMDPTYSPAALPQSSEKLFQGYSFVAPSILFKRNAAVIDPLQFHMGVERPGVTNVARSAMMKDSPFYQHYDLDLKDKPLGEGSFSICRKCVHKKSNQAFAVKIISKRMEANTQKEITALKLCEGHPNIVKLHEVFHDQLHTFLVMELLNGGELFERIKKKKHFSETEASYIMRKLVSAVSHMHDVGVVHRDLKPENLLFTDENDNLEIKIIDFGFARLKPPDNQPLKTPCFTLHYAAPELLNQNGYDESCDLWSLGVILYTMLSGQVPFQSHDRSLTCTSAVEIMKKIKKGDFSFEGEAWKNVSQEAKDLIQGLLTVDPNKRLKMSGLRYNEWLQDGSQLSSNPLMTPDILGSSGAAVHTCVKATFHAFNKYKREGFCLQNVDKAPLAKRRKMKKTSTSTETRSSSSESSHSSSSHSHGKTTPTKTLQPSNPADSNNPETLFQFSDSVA

On to `C[C@H]1COc2c(N3CCN(C)CC3)c(F)cc3c(=O)c(C(=O)OCc4cn(CCCCCC(=O)NO)nn4)cn1c23`, for which the IC50 in [1] amounted to 5.45 µM.
Take `CN(C)CCNC(=O)c1cccc2cc3ccccc3nc12`: the IC50 in assay [2] came to 1.86 µM; in assay [3], 2 µM.
On to `O=C(CCCCCCC(=O)Nc1ccccc1)NO` [VORINOSTAT], for which the IC50 is 0.79 µM in [3], 0.012 µM in [4] and more than 10 µM in assay [5].
Turning to `C[C@H]1COc2c(N3CCN(C)CC3)c(F)cc3c(=O)c(C(=O)OCc4cn(CCCCCCC(=O)NO)nn4)cn1c23`, the IC50 in [1] worked out at 1.84 µM.
Consider `CC(C)=CCC/C(C)=C\CC/C(C)=C\CSc1ccccc1C(=O)NCCCCC(=O)NO`, for which the half-inhibitory concentration (IC50) is 0.00058 µM in assay [6] and 4.93 µM in assay [7].
For the compound `C[C@H]1COc2c(N3CCN(C)CC3)c(F)cc3c(=O)c(C(=O)OCc4cn(CCCCCCCC(=O)NO)nn4)cn1c23`, the IC50 in [1] came out at 6.63 µM.
For `COc1cc2/c(=N/c3ccc(Br)cc3F)nc[nH]c2cc1OCC1CCN(C)CC1` [VANDETANIB], the IC50 was 18.5 µM in assay [8] and more than 10 µM in assay [9].
With `CN(C)c1nc2c(Br)c(Br)c(Br)c(Br)c2n1CCCCCC(=O)NO`, the 50% inhibitory concentration (IC50) in assay [10] was found to be 0.86 µM.
In [8], `COc1cc2ncnc(Nc3ccc(Br)cc3)c2cc1OCCCCCCC(=O)NO` had an IC50 of 0.88 µM.
Regarding `CCN1CCN(c2cc(Nc3ncc(C(=O)Nc4ccc(F)cc4N)s3)nc(C)n2)CC1`, the IC50 in assay [6] worked out at 0.81 µM; in [11], 17.8 µM; in assay [12] it was 2.62 µM; in [13] it was 0.6 µM.
`Cc1cc(C)c(CNC(=O)c2cc(C)n(-c3ccccc3)c2C)c(=O)[nH]1`: 15.4 µM corresponded to half-maximal inhibition in [14] (IC50).
`C[C@H]1COc2c(N3CCN(C)CC3)c(F)cc3c(=O)c(C(=O)NCc4cn(CCCCCCCC(=O)NO)nn4)cn1c23`: the IC50 in [1] came out at 6.68 µM.
Take `Cn1c(CCCC(=O)O)nc2cc(N(CCCl)CCCl)ccc21` [BENDAMUSTINE]: inhibition in [15] was half-maximal at 0.077 µM (IC50).
`CNC(=O)c1cc(Oc2ccc(NC(=O)c3cccc(O)c3)cc2)ccc1N` registered an IC50 in assay [9] of 1.95 µM.
Turning to `CN1c2ccccc2C(=O)N2[C@H](C(=O)Nc3ccc(C(=O)Nc4ccccc4N)cc3)Cc3c([nH]c4ccccc34)[C@@H]12`, the inhibition in vivo at 150 mg/kg in assay [16] was 75.2%.
For `COc1cc(NC(=O)CCCCCCC(=O)NO)ccc1Nc1nccc(-c2cn(C)c3ccccc23)n1`, the 50% inhibitory concentration (IC50) in assay [17] is 0.085 µM; in [18] it was 5.9 µM. For the same compound, the inhibition in assay [19] was 15%.
`COCCOc1cc2ncnc(Nc3ccc(/C=C/C(=O)NO)cc3)c2cc1OCCOC` showed an inhibition in assay [20] of 64.2%.
For `Cn1c(CCCCCCC(=O)NO)nc2cc(N(CCCl)CCCl)ccc21` [TINOSTAMUSTINE], the IC50 stood at 0.01 µM in [6] and 2.2 µM in assay [15].
On to `CCN1CCN(Cc2ccc(Nc3ncc(F)c(-c4cc(F)c5nc(C)n(C(C)C)c5c4)n3)nc2)CC1`, for which the inhibition in [21] worked out at 80%; in assay [22] it was 1%.
In the case of `CN(C)C(=O)c1cc(Oc2ccc(NC(=O)c3ccc(Cl)c(C(F)(F)F)c3)cc2)ccc1N`, in assay [9], the IC50 was more than 1000 µM.
The same measure, in the same setting: the value for `NC(=O)c1cc(Oc2ccc(NC(=O)c3ccc(Cl)c(C(F)(F)F)c3)cc2)ccc1N` was 2.79 µM.
